The results in this text go back to patent publication US20260226068A1, “IMIDAZOTRIAZINE IL-17A MODULATORS AND USES THEREOF” (DICE ALPHA, INC., priority 2023, published 2026).

The structures appear in SMILES notation.

One assay concerns the target T1, IL-17A/A (Homo sapiens, UniProt Q16552).
T1 construct: purchased Genscript Z03228
T1 sequence (Q16552 24-155): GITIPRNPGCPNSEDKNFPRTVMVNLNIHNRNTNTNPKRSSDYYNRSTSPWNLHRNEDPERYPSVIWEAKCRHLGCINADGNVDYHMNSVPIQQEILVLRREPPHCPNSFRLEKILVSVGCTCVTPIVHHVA
Nature of the assay: IL-17A/A HEK-Blue cell assay (SEAP reporter). The class given is cell-based. To be noted: HEK-Blue IL-17A reporter cells, IL17A/A 5 ng/mL, 20 hours, SEAP read at A630; read-out: HEK-Blue IL17AA (IC50 for IL-17A/A inhibition).

The target of a further assay is T2, IL-17A/F (Homo sapiens, UniProt Q16552+Q96PD4).
T2 construct: purchased R&D Systems
T2 sequence (Q16552 24-155): T1 sequence (Q16552 24-155)
T2 sequence (Q96PD4 31-163): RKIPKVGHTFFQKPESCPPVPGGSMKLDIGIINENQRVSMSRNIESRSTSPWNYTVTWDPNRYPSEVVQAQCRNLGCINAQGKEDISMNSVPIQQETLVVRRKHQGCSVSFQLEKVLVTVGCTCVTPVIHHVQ
Nature of the assay: IL-17A/F HEK-Blue cell assay (SEAP reporter). The class given is cell-based. The following applies: HEK-Blue IL-17A reporter cells, IL17A/F 5 ng/mL, 20 hours, SEAP read at A630; read-out: HEK-Blue IL17AF (IC50 for IL-17A/F inhibition).

With `CCn1nccc1C(=O)N[C@H](c1cn2nc(CC3C[C@@H](C(F)(F)F)CNC3=O)c(N3CCOCC3)nc2n1)C1CCC(F)(F)CC1` (single isomer, unassigned) [Compound 17], the IC50 at IL-17A/A is less than 100 nM; at IL-17A/F it was 100 to 1000 nM.
Take `CCn1nccc1C(=O)N[C@H](c1cn2nc(C[C@H]3C[C@@H](C(F)(F)F)CNC3=O)c(C[C@@H]3CCOC3)nc2n1)C1CCC(F)(F)CC1` (single isomer, unassigned) [Compound 224]: the IC50 is less than 100 nM at IL-17A/A and 100 to 1000 nM on IL-17A/F.
For `Cn1nccc1C(=O)N[C@H](c1cn2nc(C[C@H]3C[C@@H](C(F)(F)F)CNC3=O)c([C@H]3CCCOC3)nc2n1)C1CCC(F)(F)CC1` (single isomer, unassigned) [Compound 263], the IC50 at IL-17A/A is less than 100 nM; at IL-17A/F it was greater than 1000 nM.
In the same order, the values of `CCn1nccc1C(=O)N[C@H](c1cn2nc(CC3C[C@@H](C(F)(F)F)CNC3=O)c(N3CCO[C@H](C)C3)nc2n1)[C@@H]1CCCC(F)(F)C1` (single isomer, unassigned) [Compound 124] are less than 100 nM and 100 to 1000 nM.
For `CCn1nccc1C(=O)N[C@H](c1cn2nc(C[C@H]3C[C@@H](C(F)(F)F)CNC3=O)c([C@H]3COCCC3(F)F)nc2n1)C1CCC(F)(F)CC1` (single isomer, unassigned) [Compound 257] the same measures were less than 100 nM and 100 to 1000 nM.
In the same order, the values of `CCn1nccc1C(=O)N[C@H](c1cn2nc(C[C@H]3C[C@@H](C(F)(F)F)NC3=O)c(C3CCOCC3)nc2n1)[C@H]1CC[C@H](C)CC1` [Compound 152, 1-ethyl-N—((S)-((1R,4S)-4-methylcyclohexyl)(2-(((3R,5S)-2-oxo-5-(trifluoromethyl)pyrrolidin-3-yl)methyl)-3-(tetrahydro-2H-pyran-4-yl)imidazo[1,2-b][1,2,4]triazin-6-yl)methyl)-1H-pyrazole-5-carboxamide] are less than 100 nM and 100 to 1000 nM.
Consider `CCn1nccc1C(=O)N[C@H](c1cn2nc(CC3C[C@@H](C(F)(F)F)CNC3=O)c(N3CCOCC3)nc2n1)[C@@H]1CCCC(F)(F)C1` (single isomer, unassigned) [Compound 95], for which the IC50 on IL-17A/A was less than 100 nM; at IL-17A/F, 100 to 1000 nM.
As for `CCn1ncnc1C(=O)N[C@H](c1cn2nc(C[C@H]3C[C@@H](C(F)(F)F)CNC3=O)c(C3CCS(=O)(=O)CC3)nc2n1)C1CCC(F)(F)CC1` [Compound 248, N—((S)-(4,4-difluorocyclohexyl)(3-(1,1-dioxidotetrahydro-2H-thiopyran-4-yl)-2-(((3R,5R)-2-oxo-5-(trifluoromethyl)piperidin-3-yl)methyl)imidazo[1,2-b][1,2,4]triazin-6-yl)methyl)-1-ethyl-1H-1,2,4-triazole-5-carboxamide], the IC50 at IL-17A/A was less than 100 nM; on IL-17A/F, greater than 1000 nM.
As to `CCn1nccc1C(=O)N[C@H](c1cn2nc(CC3C[C@H](C(F)(F)F)CNC3=O)c(N3CCOCC3)nc2n1)C1CCC(F)(F)CC1` (single isomer, unassigned) [Compound 50], the IC50 was 100 to 1000 nM at IL-17A/A and greater than 1000 nM at IL-17A/F.
Turning to `CCn1cnnc1C(=O)N[C@H](c1cn2nc(C[C@H]3C[C@@H](C(F)(F)F)CNC3=O)c(C3CCOCC3)nc2n1)C1CCC(F)(F)CC1` [Compound 415], the IC50 on IL-17A/A was 100 to 1000 nM; on IL-17A/F it was greater than 1000 nM.
With `Cn1nccc1C(=O)N[C@H](c1cn2nc(C[C@H]3C[C@@H](C(F)(F)F)CNC3=O)c([C@@H]3CCCOC3)nc2n1)C1CCC(F)(F)CC1` (single isomer, unassigned) [Compound 264], the figures for the IC50 at IL-17A/A and at IL-17A/F were less than 100 nM and 100 to 1000 nM, respectively.
For `CCn1nccc1C(=O)N[C@H](c1cn2nc(C[C@H]3C[C@@H](C(F)(F)F)CNC3=O)c(N3CCC(C)(O)CC3)nc2n1)C1CCC(F)(F)CC1` [Compound 194, N—((S)-(4,4-difluorocyclohexyl)(3-(4-hydroxy-4-methylpiperidin-1-yl)-2-(((3R,5R)-2-oxo-5-(trifluoromethyl)piperidin-3-yl)methyl)imidazo[1,2-b][1,2,4]triazin-6-yl)methyl)-1-ethyl-1H-pyrazole-5-carboxamide] the same measures were less than 100 nM and 100 to 1000 nM.
For the compound `CCn1nccc1C(=O)N[C@H](c1cn2nc(CC3C[C@@H](C(F)(F)F)CNC3=O)c(N3C[C@@H]4C[C@H]3CO4)nc2n1)C1CCC(F)(F)CC1` (single isomer, unassigned) [Compound 98], the IC50 at IL-17A/A and on IL-17A/F was less than 100 nM each time.
For `CCn1nccc1C(=O)N[C@H](c1cn2nc(CC3C[C@@H](C(F)(F)F)CNC3=O)c(N3CCOCC3)nc2n1)C(C1CC1)C1CC1` (single isomer, unassigned) [Compound 111], the IC50 is less than 100 nM on IL-17A/A and 100 to 1000 nM on IL-17A/F.
`Cc1nccnc1C(=O)N[C@H](c1cn2nc(C[C@H]3C[C@@H](C(F)(F)F)CNC3=O)c(C3CCOCC3)nc2n1)C1CCC(F)(F)CC1` [Compound 246, N—((S)-(4,4-difluorocyclohexyl)(2-(((3R,5R)-2-oxo-5-(trifluoromethyl)piperidin-3-yl)methyl)-3-(tetrahydro-2H-pyran-4-yl)imidazo[1,2-b][1,2,4]triazin-6-yl)methyl)-3-methylpyrazine-2-carboxamide]: the IC50 on IL-17A/A was 100 to 1000 nM; at IL-17A/F, greater than 1000 nM.
Regarding `CCc1nonc1C(=O)N[C@H](c1cn2nc(C[C@H]3C[C@@H](C(F)(F)F)CNC3=O)c(C3CCOCC3)nc2n1)C1CCCCC1` [Compound 221, N—((S)-cyclohexyl(2-(((3R,5R)-2-oxo-5-(trifluoromethyl)piperidin-3-yl)methyl)-3-(tetrahydro-2H-pyran-4-yl)imidazo[1,2-b][1,2,4]triazin-6-yl)methyl)-4-ethyl-1,2,5-oxadiazole-3-carboxamide], the IC50 on IL-17A/A is less than 100 nM; on IL-17A/F it was 100 to 1000 nM.
Consider `CCn1nccc1C(=O)N[C@H](c1cn2nc(C[C@H]3C[C@@H](C(F)(F)F)CNC3=O)c(CC3COC3)nc2n1)C1CCC(F)(F)CC1` [Compound 168, N-((1S)-(4,4-difluorocyclohexyl)(3-(oxetan-3-ylmethyl)-2-(((3R,5R)-2-oxo-5-(trifluoromethyl)piperidin-3-yl)methyl)imidazo[1,2-b][1,2,4]triazin-6-yl)methyl)-1-ethyl-1H-pyrazole-5-carboxamide], for which the IC50 on IL-17A/A is less than 100 nM; on IL-17A/F, 100 to 1000 nM.
Take `CCn1nccc1C(=O)N[C@H](c1cn2nc(C[C@H]3C[C@@H](C(F)(F)F)CNC3=O)c(N3CCO[C@H](C)C3)nc2n1)[C@H]1CC[C@H](C)CC1` [Compound 157, 1-ethyl-N—((S)-((1r,4S)-4-methylcyclohexyl)(3-((R)-2-methylmorpholino)-2-(((3R,5R)-2-oxo-5-(trifluoromethyl)piperidin-3-yl)methyl)imidazo[1,2-b][1,2,4]triazin-6-yl)methyl)-1H-pyrazole-5-carboxamide]: the IC50 at IL-17A/A and at IL-17A/F was less than 100 nM each time.
As to `CCn1nccc1C(=O)N[C@H](c1cn2nc(C[C@H]3C[C@@H](C(F)(F)F)CNC3=O)c(N3CCN(C4COC4)CC3)nc2n1)C1CCC(F)(F)CC1` [Compound 433, N—((S)-(4,4-difluorocyclohexyl)(3-(4-(oxetan-3-yl)piperazin-1-yl)-2-(((3R,5R)-2-oxo-5-(trifluoromethyl)piperidin-3-yl)methyl)imidazo[1,2-b][1,2,4]triazin-6-yl)methyl)-1-ethyl-1H-pyrazole-5-carboxamide], the values for the IC50 on IL-17A/A and on IL-17A/F were less than 100 nM and 100 to 1000 nM, respectively.
Consider `CCn1nccc1C(=O)N[C@H](c1cn2nc(C[C@H]3C[C@@H](C(F)(F)F)CNC3=O)c(C3CCOC4(C3)CN(C)C4)nc2n1)C1CCC(F)(F)CC1` (stereo partly drawn) [Compound 354, N-((1S)-(4,4-difluorocyclohexyl)(3-(2-methyl-5-oxa-2-azaspiro[3.5]nonan-8-yl)-2-(((3R,5R)-2-oxo-5-(trifluoromethyl)piperidin-3-yl)methyl)imidazo[1,2-b][1,2,4]triazin-6-yl)methyl)-1-ethyl-1H-pyrazole-5-carboxamide], for which the IC50 is 100 to 1000 nM on IL-17A/A and greater than 1000 nM at IL-17A/F.
For `CCn1nccc1C(=O)N[C@H](c1cn2nc(C[C@H]3C[C@@H](C(F)(F)F)CNC3=O)c(C3CCn4nccc4C3)nc2n1)C1CCC(F)(F)CC1` (stereo partly drawn) [Compound 358, N-((1S)-(4,4-difluorocyclohexyl)(2-(((3R,5R)-2-oxo-5-(trifluoromethyl)piperidin-3-yl)methyl)-3-(4,5,6,7-tetrahydropyrazolo[1,5-a]pyridin-5-yl)imidazo[1,2-b][1,2,4]triazin-6-yl)methyl)-1-ethyl-1H-pyrazole-5-carboxamide] the same measures were less than 100 nM and 100 to 1000 nM.
In the case of `CC(C)c1nc2nc([C@@H](NC(=O)c3ccnn3C)C3CCC(F)(F)CC3)cn2nc1C[C@H]1C[C@@H](C(F)(F)F)CNC1=O` [Compound 261, N—((S)-(4,4-difluorocyclohexyl)(3-isopropyl-2-(((3R,5R)-2-oxo-5-(trifluoromethyl)piperidin-3-yl)methyl)imidazo[1,2-b][1,2,4]triazin-6-yl)methyl)-1-methyl-1H-pyrazole-5-carboxamide], the figures for the IC50 at IL-17A/A and on IL-17A/F were less than 100 nM and 100 to 1000 nM, respectively.
In the same order, the values of `CCn1nccc1C(=O)N[C@H](c1cn2nc(C[C@H]3C[C@@H](C(F)(F)F)CNC3=O)c(C3(C)CCOC3)nc2n1)C1CCC(F)(F)CC1` (single isomer, unassigned) [Compound 178] are less than 100 nM and greater than 1000 nM.
